# Entries after “also recorded” stand apart in the source; their conditions may differ. Where two headings read alike, the source gives them in different places.
# Assays:
# Serpula lacrymans = assay: In vitro antifungal assay (mycelial growth on PDA); settings: read-out: ED50
# Fusarium oxysporum = assay: In vitro fungal bioassay, fungitoxic activity; settings: maximal concentration 1500 μM; for fungitoxic activity against Fusarium oxysporum (in words): in vitro; for ED95 F. oxysporum: Table 2, effect in 95% of the population
# Hemenoscyphus fraxineus = assay: In vitro antifungal assay (mycelial growth on PDA); settings: read-out: ED50
# Botrytis cinerea = assay: In vitro fungal bioassay, fungitoxic activity; settings: for fungitoxic activity against Botrytis cinerea (in words): in vitro, dose range between 10 and 1500 μM; for ED95 Botrytis cinerea: effect in 95% of the population, maximal concentration 1500 μM
# Colletotrichum dematium = assay: In vitro antifungal assay (mycelial growth on PDA); settings: read-out: ED50
# Septoria tritici = assay: In vitro antifungal assay (mycelial growth on PDA); settings: Zymoseptoria tritici, read-out: ED50
# Alternaria radicina = assay: Fungitoxic activity of combined isothiocyanates, 48 well plates, synergy (CompuSyn)
# Protocol: (§1) Applicants examined fungitoxic activities of combined isothiocyanates in three necrotrophic fungal species, i.e. Alternaria radicina (class: Dothideomycetes; order: Pleosporales; host: carrot), Fusarium gramineum (class: Sordariomycetes; order: Hypocreales; host: cereals) and Plectosphaerella cucumerina (class: Sordariomycetes; order: Glomerellales; host: tomato and cucurbits).
# (§2) Fungitoxic activities were tested in 48 well tissue culture plates. […] Synergistic fungitoxic activities was then estimated as in Chou (2006), and the CompuSyn software (www.combosyn.com) was used to determine the Combination Index (CI) for combinations of two molecules and the presence of synergism (CI<1).
# Fusarium gramineum [1] = assay: as above
# Protocol: as §1, §2
# [2] = tested on: Plectosphaerella cucumerina; assay: as above
# Protocol: as §1, §2
# Fusarium gramineum [3] = assay: microbe, parasite or virus in culture; format: cell-based; settings: for EC50: read-out: ED50 F. gramineum
# Phytophthora cactorum = assay: microbe, parasite or virus in culture; format: cell-based
# Phytophthora infestans = assay: microbe, parasite or virus in culture; format: cell-based; settings: read-out: ED50 P. infestans
# Guignardia bidwellii = assay: In vitro fungal bioassay, fungitoxic activity; format: cell-based; settings: Phyllosticta ampelicida; Table 5; unit from the concentration series of the method; read-out: ED50 G. bidwellii
# [4] = 168 h, read-out: EC50 Molecule 2
# [5] = Table 3, maximal dosage 1500 μM
# [6] = 168 h, read-out: EC50 Molecule 2, Alternaria radicina, second molecule alone, range 10-850 μM, 850 = no fungitoxic activity in the tested range
# [7] = read-out: EC50 Molecule 1, Alternaria radicina, first molecule alone, range 10-850 μM, 850 = no fungitoxic activity in the tested range
# [8] = 168 h, read-out: EC50 Molecule 1
# [9] = Fusarium, Table 5, unit from the concentration series of the method
smiles,measurement,setting,value
CS(=O)(=O)CCCCCCCN=C=S [7-methylsulfonyl-heptyl isothiocyanate],EC50,Serpula lacrymans,150 µM
same,fungitoxic activity against Fusarium oxysporum (in words),Fusarium oxysporum,non-active
same,EC50,Hemenoscyphus fraxineus,770 µM
same,fungitoxic activity against Botrytis cinerea (in words),Botrytis cinerea,no fungitoxic activity; also recorded: non-active
same,EC50,Colletotrichum dematium,650 µM
same,EC50,Septoria tritici,350 µM
"C[S+]([O-])CCCN=C=S (centres unmarked) [Molecule 3MSOH, 1-Isothiocyanato-3-(methylsulfinyl)-propane]",EC50,Alternaria radicina; [4],786 µM
same,EC50,Fusarium gramineum [1]; [4],525 µM
same,EC50,Fusarium gramineum [1]; read-out: EC50 Molecule 2,525 µM
same,EC50,[2]; [4],627 µM
"CS(=O)(=O)CCCN=C=S [Molecule 3MSOOH, 1-Isothiocyanato-3-(methylsulfonyl)-propane]",EC50,Alternaria radicina; [4],469 µM
same,EC50,Fusarium gramineum [1]; [4],387 µM
same,EC50,Fusarium gramineum [1]; read-out: EC50 Molecule 2,387 µM
same,EC50,[2]; [4],536 µM
"C[S+]([O-])CCCCN=C=S (centres unmarked) [Molecule 4MSOH, 1-Isothiocyanato-4-(methylsulfinyl)-butane]",EC50,Fusarium gramineum [3]; Fusarium,628 µM
same,ED50 P. cactorum,Phytophthora cactorum,<1500 µM
"C[S+]([O-])CCCCCN=C=S (centres unmarked) [Molecule 5MSOH, 1-isothiocyanato-5-(methylsulfinyl)-pentane]",ED95 Botrytis cinerea,Botrytis cinerea; Table 4,<1500 µM
same,fungitoxic activity against Botrytis cinerea (in words),Botrytis cinerea,none of these single compounds revealed fungitoxic effect
"CS(=O)(=O)CCCCCN=C=S [Molecule 5MSOOH, 1-Isothiocyanato-5-(methylsulfonyl)-pentane]",ED95 Botrytis cinerea,Botrytis cinerea; Table 4,<1500 µM
same,fungitoxic activity against Botrytis cinerea (in words),Botrytis cinerea,none of these single compounds revealed fungitoxic effect
"CS(=O)(=O)CCCCCCN=C=S [Molecule 6MSOOH, 1-Isothiocyanato-6-(methylsulfonyl)-hexane]",EC50,Fusarium gramineum [3]; [5],<1500 µM
same,fungistatic effect on Fusarium gramineum (in words),Fusarium gramineum [3]; in the dosage of 1500 μM,not fungistatic
same,ED50 P. cactorum,Phytophthora cactorum; [5],<1500 µM
"C[S+]([O-])CCCCCCCN=C=S (centres unmarked) [Molecule 7MSOH, 1-Isothiocyanato-7-(methylsulfinyl)-heptane]",EC50,Alternaria radicina; [6],537 µM
same,EC50,Fusarium gramineum [1]; [4],586 µM
same,EC50,Fusarium gramineum [1]; read-out: EC50 Molecule 2,586 µM
same,EC50,[2]; [4],337 µM
"C[S+]([O-])CCCCc1cccc(CN=C=S)c1 (centres unmarked) [Molecule 8ASOH, 1-(isothiocyanatomethyl)-3-(4-(methylsulfinyl)butyl)benzene]",EC50,Alternaria radicina; [7],723 µM
"CS(=O)(=O)CCCCc1cccc(CN=C=S)c1 [Molecule 8ASOOH, 1-(isothiocyanatomethyl)-3-(4-(methylsulfonyl)butyl)benzene]",EC50,Alternaria radicina; [6],> 850 µM
"C[S+]([O-])CCCCC/C=C/CN=C=S (centres unmarked) [Molecule 8CSOH, (E)-1-isothiocyanato-8-(methylsulfinyl)oct-2-ene]",EC50,Alternaria radicina; [7],472 µM
same,EC50,"Alternaria radicina; read-out: EC50 Molecule 1, first molecule alone, range 10-850 μM, 850 = no fungitoxic activity in the tested range",704 µM
same,EC50,Fusarium gramineum [1]; [8],> 850 µM
same,EC50,Fusarium gramineum [1]; read-out: EC50 Molecule 1,> 850 µM
same,EC50,[2]; read-out: EC50 Molecule 1,273 µM
"CC[S+]([O-])CCCCCCCCN=C=S (centres unmarked) [Molecule 8ESOH, 1-(ethylsulfinyl)-8-isothiocyanatooctane]",EC50,Alternaria radicina; [6],472 µM
same,EC50,Fusarium gramineum [1]; [8],533 µM
same,EC50,Fusarium gramineum [1]; read-out: EC50 Molecule 1,533 µM
"CCS(=O)(=O)CCCCCCCCN=C=S [Molecule 8ESOOH, 1-(ethylsulfonyl)-8-isothiocyanatooctane]",EC50,Alternaria radicina; [6],> 850 µM
"C[S+]([O-])CCCCCCCCN=C=S (centres unmarked) [Molecule 8MSOH, 1-Isothiocyanato-8-(methylsulfinyl)-octane]",EC50,Phytophthora infestans,26.4 µM
same,EC50,Fusarium gramineum [1]; [8],317 µM
same,EC50,Fusarium gramineum [1]; [4],317 µM
same,EC50,Fusarium gramineum [1]; read-out: EC50 Molecule 1,317 µM
same,ED95 F. oxysporum,Fusarium oxysporum,<1500 µM
same,fungitoxic activity against Fusarium oxysporum (in words),Fusarium oxysporum,no fungitoxic effect
same,ED95 Botrytis cinerea,Botrytis cinerea; Table 2,<1500 µM
same,ED95 Botrytis cinerea,Botrytis cinerea; Table 4,<1500 µM
same,fungitoxic activity against Botrytis cinerea (in words),Botrytis cinerea,no fungitoxic effect; also recorded: none of these single compounds revealed fungitoxic effect
same,EC50,Fusarium gramineum [3]; [9],292 µM
same,EC50,Guignardia bidwellii,30.4 µM
"CS(=O)(=O)CCCCCCCCN=C=S [Molecule 8MSOOH, 1-Isothiocyanato-8-(methylsulfonyl)-octane]",EC50,Phytophthora infestans,350 µM
same,EC50,Fusarium gramineum [1]; [8],> 850 µM
same,ED95 F. oxysporum,Fusarium oxysporum,<1500 µM
same,fungitoxic activity against Fusarium oxysporum (in words),Fusarium oxysporum,no fungitoxic effect
same,ED95 Botrytis cinerea,Botrytis cinerea; Table 2,<1500 µM
same,ED95 Botrytis cinerea,Botrytis cinerea; Table 4,<1500 µM
same,fungitoxic activity against Botrytis cinerea (in words),Botrytis cinerea,no fungitoxic effect; also recorded: none of these single compounds revealed fungitoxic effect
same,EC50,"Fusarium gramineum [3]; Fusarium, Table 3, maximal dosage 1500 μM",464 µM
same,EC50,Fusarium gramineum [3]; [9],22.2 µM
same,EC50,"Phytophthora cactorum; Phytophthora cactorum, read-out: ED50 P. cactorum",628 µM
same,EC50,[2]; read-out: EC50 Molecule 1,> 850 µM
same,EC50,Guignardia bidwellii,464 µM
"CS(=O)(=O)CCCCCCCCC#N [Molecule 8MSOON, 8-(methylsulfonyl)octylnitrile]",ED95 F. oxysporum,Fusarium oxysporum,<1500 µM
same,ED95 Botrytis cinerea,Botrytis cinerea; Table 2,<1500 µM
"C[S+]([O-])CCCCCCCCCN=C=S (centres unmarked) [Molecule 9MSOH, 1-Isothiocyanato-9-(methylsulfinyl)-nonane]",EC50,Fusarium gramineum [1]; [4],553 µM
"CS(=O)(=O)CCCCCCCCCN=C=S [Molecule 9MSOOH, 1-Isothiocyanato-9-(methylsulfonyl)-nonane]",EC50,Fusarium gramineum [1]; [4],> 850 µM
